One block for each compound: values may come before it.
Tests used:
[1] = tested on: L88; assay: in vitro inhibition of growth of human lung cancer cell line L88 (Table 1); assay type: cell-based
From the text: (§1) Tables 1 to 4 at the end of the present description show in vitro test results obtained in various sets of experiments for the cytotoxic activity of several of the benzazole compounds concerned, including also for reference results for the compound CJM 126 and comparative results for compound DF129, when tested against a range of tumor cell lines which includes ovarian, lung and certain colon and renal cancer cells from the National Cancer Institute (USA) collection. As usual the results are expressed in terms of IS50 values (concentration or dosage required to reduce cell growth or proliferation by 50%) calculated from dose-effect curves plotted for cultures of the cells in question.
(§2) In carrying out the in vitro studies, the cytotoxicity assays may be carried out by a method corresponding substantially to the following example:
(§3) Cells were maintained in a continuous logarithmic culture in Dublecco's medium supplemented with 10% fetal calf serum and penicillin (100 IU/ml) and streptomycin ([…]). The cells were mildly trypsinized for passage and for use in assays. On day zero, 100 μl of trypsinized tumor cells (1×10^4 /ml) were plated in the wells of 96-well flat-bottom microtiter plates. The plates were incubated for 2 days at 37° C. and 5% CO2 in air to allow the cells to adhere and resume exponential growth prior to the addition of drugs.
(§4) On day two 50 μl of the highest drug concentration was added to the wells of column 12 and from there serially diluted 3-fold to column 1 by serial transfer of 50 μl using an 8-channel micropipette. The final volume of column 1 was adjusted to 100 μl. No additions were made to the wells of rows A and B, which served as controls. […]
(§5) On day 7 the test was terminated by the addition of 100 μl saline containing 0.002% w/v propidium iodide (Sigma), 0.3% drawing ink (Staedtler "Marsmatic 745"--Trade Mark) and 0.5% Triton X-100. The plates were kept at 4° C. overnight before reading on an inverted microscope equipped with an automated scanning stage. Fluorescence intensity was measured in arbitrary units by a photomultiplier. […]

[2] = tested on: A2780-cisR; assay: in vitro activity against human ovarian cell line A2780-cisR (Table 2); assay type: cell-based; conditions: for IC50: Homo sapiens, A2780cisR, A2780-cisR (platinum-resistant); for activity against A2780-cisR compared to the parental line A2780: words, Table 2
From the text: As usual the results are expressed in terms of IS50 values (concentration or dosage required to reduce cell growth or proliferation by 50%) calculated from dose-effect curves plotted for cultures of the cells in question.
as §2, §3
(§6) On day two 50 μl of the highest drug concentration was added to the wells of column 12 and from there serially diluted 3-fold to column 1 by serial transfer of 50 μl using an 8-channel micropipette. The final volume of column 1 was adjusted to 100 μl. No additions were made to the wells of rows A and B, which served as controls. The plates were further incubated for 5 days at 37° C. and 5% CO2 in air. Each compound was tested in duplicate.
The plates were kept at 4° C. overnight before reading on an inverted microscope equipped with an automated scanning stage. Fluorescence intensity was measured in arbitrary units by a photomultiplier. An HP-87 computer controlled the movement of the stage and also collected and processed the data from the multiplier.

[3] = tested on: MOR/P; assay: in vitro inhibition of growth of human lung cancer cell line MOR/P (Table 1); assay type: cell-based; conditions: MOR/P (parental line)
From the text: as §1, §2, §3, §6
On day 7 the test was terminated by the addition of 100 μl saline containing 0.002% w/v propidium iodide (Sigma), 0.3% drawing ink (Staedtler "Marsmatic 745"--Trade Mark) and 0.5% Triton X-100. The plates were kept at 4° C. overnight before reading on an inverted microscope equipped with an automated scanning stage. Fluorescence intensity was measured in arbitrary units by a photomultiplier. An HP-87 computer controlled the movement of the stage and also collected and processed the data from the multiplier.
For each compound tested a dose-response curve was obtained and the IC50 value (the drug concentration at 50% inhibition of cell growth) was calculated.

[4] = tested on: xenotransplanted breast carcinomas; assay: in vivo activity in panel of xenotransplanted breast carcinomas; set-up: species or system human (xenotransplanted in nude mice); conditions: words; DF203 panel of four, DF129 two carcinomas
Description: (§7) In one typical set of experiments, four human breast carcinomas xenotransplanted into female Ncr: nu/nu (Taconic, Germantown, U.S.A.) or male Bom: NMRI-nu/nu mice (Bomholtgaard, Ry, Denmark) were used for the evaluation of antitumor activity. Mice weighing 20-25 g at the start of experiments were held under sterile conditions at 24-26° C., 50% relative humidity and 12 hours light-dark rhythm in laminar flow shelves. The animals received autoclaved food and bedding; the drinking water was filtered and acidified (pH4.0).
The following breast carcinoma cell lines were used: BO; MCF-7 (NCI, U.S.A.); MT-1 and MT-3. The tumors BO and MCF-7 are ER^+ models: the carcinomas MT-1 and MT-3 are ER^- ones. Tumors were transplanted subcutaneously (s.c.) as pieces (2×2 mm) into the left flank of 5-8 nude mice/experimental group. Drug treatment was initiated when the tumors reached a diameter of 4-5 mm. […] Tumor size was measured twice weekly with a caliper. Median tumor volume/group was related to the first treatment day and expressed as Relative Tumor Volume (RTV). For the estimation of toxicity, body weight was determined twice weekly and the mean percentage body weight change (BCC) was calculated. In one experiment blood was obtained from the retroorbital venous plexus of mice and blood cells were determined with a Coulter counter (Model T41).

[5] = tested on: NCI HOP-92; assay: in vitro inhibition of growth of human lung cancer cell line NCI HOP-92 (Table 1); assay type: cell-based
From the text: as §1
(§8) In carrying out the in vitro studies, the cytotoxicity assays may be carried out by a method corresponding substantially to the following example: […]
as §5

[6] = tested on: Colon SW-620; assay: in vitro inhibitory activity against human colon cell line SW-620 (Table 3); assay type: cell-based
From the text: as §1, §8, §5

[7] = tested on: breast carcinoma BO; assay: in vivo antitumor test, human breast carcinoma BO xenotransplanted in nude mice; conditions: BO
Description: as §7
The following breast carcinoma cell lines were used: BO; MCF-7 (NCI, U.S.A.); MT-1 and MT-3. The tumors BO and MCF-7 are ER^+ models: the carcinomas MT-1 and MT-3 are ER^- ones. Tumors were transplanted subcutaneously (s.c.) as pieces (2×2 mm) into the left flank of 5-8 nude mice/experimental group. Drug treatment was initiated when the tumors reached a diameter of 4-5 mm. Compounds were solubized with Tween 80 (maximum 10% of final volume) and suspended in saline. Suspensions were preparted freshly for each drug administration and injected in a volume of 0.2 mL/20 g body weight employing a once-weekly schedule (x3). Tumor size was measured twice weekly with a caliper. Median tumor volume/group was related to the first treatment day and expressed as Relative Tumor Volume (RTV). For the estimation of toxicity, body weight was determined twice weekly and the mean percentage body weight change (BCC) was calculated. In one experiment blood was obtained from the retroorbital venous plexus of mice and blood cells were determined with a Coulter counter (Model T41). […]

[8] = tested on: OVCAR-8; assay: in vitro activity against human ovarian cell line OVCAR-8 (Table 2); assay type: cell-based
From the text: as §1, §8, §5

[9] = tested on: Prostatic PC3 MAZ; assay: in vitro inhibitory activity against human prostatic cell line PC3 MAZ (Table 3); assay type: cell-based
From the text: as §1, §8, §5

[10] = tested on: MCF-7; assay: in vivo antitumor test, human breast carcinoma MCF-7 xenotransplanted in nude mice; conditions: for evaluation / RTV, relative tumor volume (T/C %): qd 12, 19, 26; for RTV, relative tumor volume (T/C %): marked * significant versus control
Description: as §7
The following breast carcinoma cell lines were used: BO; MCF-7 (NCI, U.S.A.); MT-1 and MT-3. The tumors BO and MCF-7 are ER^+ models: the carcinomas MT-1 and MT-3 are ER^- ones. Tumors were transplanted subcutaneously (s.c.) as pieces (2×2 mm) into the left flank of 5-8 nude mice/experimental group. Drug treatment was initiated when the tumors reached a diameter of 4-5 mm. Compounds were solubized with Tween 80 (maximum 10% of final volume) and suspended in saline. Suspensions were preparted freshly for each drug administration and injected in a volume of 0.2 mL/20 g body weight employing a once-weekly schedule (x3). Tumor size was measured twice weekly with a caliper. Median tumor volume/group was related to the first treatment day and expressed as Relative Tumor Volume (RTV). For the estimation of toxicity, body weight was determined twice weekly and the mean percentage body weight change (BCC) was calculated. In one experiment blood was obtained from the retroorbital venous plexus of mice and blood cells were determined with a Coulter counter (Model T41).
Some of the in vivo test results are shown in Tables 5 and 6 at the end of the present description, and in FIG. 1 of the accompanying drawing which illustrates the results for measurements of in vivo activity of 2-(4'-amino-3'-methylphenyl) benzothiazole (DF203) against MCF7 in nude mice administered on days 12, 19 and 26.

[11] = tested on: MCF-7B; assay: in vitro inhibitory activity against human breast tumour cell line MCF-7B (Table 4); assay type: cell-based; conditions: initial seeding density 2.5 × 10^2 cells/well
From the text: as §1, §2, §3, §4, §5

[12] = MCF-7, optimum dose 200 mg/Kg/inj i.p.
[13] = MCF-7, optimum dose 12.5 mg/Kg/inj i.p.

IC50 [1]: 0.05 µM
IC50 [2]: 41 µM
IC50 [6]: ~100 µM
IC50 [8]: > 100 µM
IC50 [9]: 54 µM
SMILES: Nc1ccc(-c2nc3ccccc3s2)cc1I [DF129, 2-(4'-amino-3'-iodophenyl)benzothiazole]
activity against A2780-cisR compared to the parental line A2780 [2]: increased activity
IC50 [3]: 0.3 µM
in vivo activity in xenotransplanted breast carcinomas [4]: only borderline activity in one of the models
IC50 [5]: < 0.01 µM
RTV, relative tumor volume (T/C %) ([7]; optimum dose 200 mg/Kg/inj i.p., qd 27, 34, 41 (Table 6), not marked significant): 97%
evaluation [10, 12]: (+) (T/C % ≥ 51%)
RTV, relative tumor volume (T/C %) [10, 12]: 68%

SMILES: Cc1cc(-c2nc3ccccc3s2)ccc1N [DF203, 2-(4'-amino-3'-methylphenyl)benzothiazole]
IC50 [1]: 6 µM
IC50 [2]: 18 µM
activity against A2780-cisR compared to the parental line A2780 [2]: increased activity
IC50 [3]: 0.1 µM
in vivo activity in xenotransplanted breast carcinomas [4]: consistent tumor growth inhibition in all four tumors
IC50 [6]: > 100 µM
evaluation ([7]; optimum dose 25 mg/Kg/inj i.p., qd 27, 34, 41): ++ (T/C = 21-35%)
RTV, relative tumor volume (T/C %) ([7]; optimum dose 25 mg/Kg/inj i.p., qd 27, 34, 41, marked * significant versus control): 35%
IC50 [11]: 0.01 µM
IC50 [8]: > 100 µM
IC50 [9]: > 100 µM
evaluation [10, 13]: ++ (T/C = 21-35%)
RTV, relative tumor volume (T/C %) [10, 13]: 31%
tumor status of surviving animal ([10]; top dose 25 mg/Kg): tumor free

— US6034246A, “2-arylbenzazole compounds” (Cancer Research Campaign Technology Limited, priority 1995, dated 2000)
